Read-outs that look alike come from different tables or passages of the source.
Experiments:
Experiment in all cases: biochemical
[1] = target: T1, ZmDRIK1 (DROUGHT RESPONSIVE INACTIVE KINASE 1), kinase domain (Zea mays, UniProt C0P4K9)
T1 construct: gene ZEAMMB73_Zm00001d028770; ZmDRIK1-KD R187-S514 (kinase domain)
T1 sequence (C0P4K9 187-514): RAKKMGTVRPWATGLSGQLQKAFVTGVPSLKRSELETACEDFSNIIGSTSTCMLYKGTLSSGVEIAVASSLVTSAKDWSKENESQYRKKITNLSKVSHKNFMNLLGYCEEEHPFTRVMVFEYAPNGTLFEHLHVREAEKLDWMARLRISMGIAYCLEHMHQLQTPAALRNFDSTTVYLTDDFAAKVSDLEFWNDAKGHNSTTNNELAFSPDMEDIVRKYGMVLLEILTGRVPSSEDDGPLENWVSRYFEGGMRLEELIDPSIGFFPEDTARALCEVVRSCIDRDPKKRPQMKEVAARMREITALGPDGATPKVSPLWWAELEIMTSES

ZmDRIK1-K217-S514 = target: T2, ZmDRIK1-K217-S514 (Zea mays, UniProt C0P4K9)
T2 construct: kinase domain, K217-S514
T2 sequence (C0P4K9 1-514): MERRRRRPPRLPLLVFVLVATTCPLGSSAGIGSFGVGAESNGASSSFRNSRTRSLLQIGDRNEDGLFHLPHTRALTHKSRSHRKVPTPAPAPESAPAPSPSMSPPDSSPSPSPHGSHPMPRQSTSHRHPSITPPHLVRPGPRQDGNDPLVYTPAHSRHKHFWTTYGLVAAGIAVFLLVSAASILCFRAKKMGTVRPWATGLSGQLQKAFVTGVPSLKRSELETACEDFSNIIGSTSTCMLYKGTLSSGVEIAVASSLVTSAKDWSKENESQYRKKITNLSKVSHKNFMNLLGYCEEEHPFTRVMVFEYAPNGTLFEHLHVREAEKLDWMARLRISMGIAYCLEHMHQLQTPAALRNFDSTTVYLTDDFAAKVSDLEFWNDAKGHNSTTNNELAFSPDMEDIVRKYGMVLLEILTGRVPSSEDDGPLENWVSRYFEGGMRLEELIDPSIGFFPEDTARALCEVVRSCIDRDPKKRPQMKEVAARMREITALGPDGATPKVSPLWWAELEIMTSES

ZmDRIK1-K217-P492 = target: T3, ZmDRIK1-K217-P492 (Zea mays, UniProt C0P4K9)
T3 construct: kinase domain, K217-P492
T3 sequence (C0P4K9 1-514): T2 sequence (C0P4K9 1-514)

ZmDRIK1-R187-P492 = target: T4, ZmDRIK1-R187-P492 (Zea mays, UniProt C0P4K9)
T4 construct: kinase domain, R187-P492
T4 sequence (C0P4K9 1-514): T2 sequence (C0P4K9 1-514)

[2] = read-out: dTm B, sheet ZmDRIK1-R187-S514;, DSF, Boltzmann fit, 0.1% DMSO
[3] = read-out: dTm B, sheet ZmDRIK1-K217-S514;, DSF, Boltzmann fit, 0.1% DMSO
[4] = read-out: dTm B, sheet ZmDRIK1-K217-P492;, DSF, Boltzmann fit, 0.1% DMSO
[5] = read-out: dTm B, DSF, Boltzmann fit, 0.1% DMSO

Row | ΔTm at 10 µM [1, 2] | ΔTm at 10 µM (ZmDRIK1-K217-S514; [3]) | ΔTm at 10 µM (ZmDRIK1-K217-P492; [4]) | ΔTm at 10 µM (ZmDRIK1-R187-P492; [5]) | Structure (SMILES) | ΔTm at 10 µM ([1]; read-out: dTm B) | ΔTm at 10 µM (ZmDRIK1-K217-S514; read-out: dTm B) | ΔTm at 10 µM (ZmDRIK1-K217-P492; read-out: dTm B) | ΔTm at 10 µM (ZmDRIK1-R187-P492; read-out: dTm B)
1 | -0.488 °C | -0.33 °C | -1.11 °C | -0.291 °C | CCN1/C(=C/C(C)=O)Sc2ccc(OC)cc21 [TG003] |  |  |  | 
2 | -0.852 °C | -0.395 °C | -0.6 °C | -0.347 °C | Nc1nc(N)c2nc(-c3cccc(O)c3)c(-c3cccc(O)c3)nc2n1 [TG100-115] |  |  |  | 
3 | -0.897 °C | -0.317 °C | -0.984 °C | -0.311 °C | Cc1cnc(Nc2ccc(N3CCN(C)CC3)cc2)nc1Nc1cccc(S(=O)(=O)NC(C)(C)C)c1 [TG101209] |  |  |  | 
4 | -0.804 °C | -0.238 °C | -0.974 °C | -0.567 °C | Cc1cnc(Nc2ccc(OCCN3CCCC3)cc2)nc1Nc1cccc(S(=O)(=O)NC(C)(C)C)c1 [TG101348 (SAR302503)] |  |  |  | 
5 | -0.944 °C | -0.0845 °C | -0.973 °C | -0.136 °C | Cc1cc(C(C)Nc2ccccc2)c2nc(N3CCOCC3)cc(=O)n2c1 (stereo not drawn) [TGX-221] |  |  |  | 
6 |  |  |  |  | Cc1ccccc1CN1C(=O)C2=C(CCN(Cc3ccccc3)C2)N2CCN=C12 [TIC10] | -0.768 °C | -0.395 °C | 0.685 °C | -0.155 °C
7 | -0.64 °C | -0.226 °C | -1.14 °C | -0.199 °C | Cc1[nH]c(/C=C2\C(=O)Nc3ccccc32)c(C)c1CCC(=O)O [TSU-68 (SU6668)] |  |  |  | 
8 | -0.75 °C | -0.297 °C | -0.79 °C | -0.00936 °C | Nc1cccc(-c2cc3c(Oc4cccc(O)c4)ncnc3[nH]2)c1 [TWS119] |  |  |  | 
9 | -0.869 °C | -0.303 °C | -0.971 °C | -0.158 °C | COc1cc2c(N3CCN(C(=O)Nc4ccc(OC(C)C)cc4)CC3)ncnc2cc1OCCCN1CCCCC1 [Tandutinib (MLN518)] |  |  |  | 
10 | -0.862 °C | -0.252 °C | -0.739 °C | -0.226 °C | CNC(=O)c1cc(COc2nnc(Nc3ccc(Cl)cc3)c3ccoc23)ccn1 [Telatinib] |  |  |  | 
11 | -2.07 °C | -0.361 °C | -1.36 °C | -0.393 °C | CO[C@H]1C[C@@H]2CC[C@@H](C)[C@@](O)(O2)C(=O)C(=O)N2CCCC[C@H]2C(=O)O[C@H]([C@H](C)C[C@@H]2CC[C@@H](OC(=O)C(C)(CO)CO)[C@H](OC)C2)CC(=O)[C@H](C)/C=C(\C)[C@@H](O)[C@@H](OC)C(=O)[C@H](C)C[C@H](C)/C=C/C=C/C=C/1C [Temsirolimus (CCI-779)] |  |  |  | 
12 | -0.845 °C | -0.368 °C | -0.879 °C | -0.171 °C | O=C(NCc1ccccc1)c1csc(Nc2ccncn2)n1 [Thiazovivin] |  |  |  | 
13 | -0.713 °C | -4.75 °C | -1.05 °C | -0.238 °C | COc1ccc2cc(-c3nc(-c4ccc([S+](C)[O-])cc4)[nH]c3-c3ccncc3)ccc2c1 (stereo not drawn) [Tie2 kinase inhibitor] |  |  |  | 
14 | -0.0903 °C | -0.402 °C | -3.26 °C | -3.15 °C | COc1cc2nccc(Oc3ccc(NC(=O)Nc4cc(C)on4)c(Cl)c3)c2cc1OC [Tivozanib (AV-951)] |  |  |  | 
15 | -0.482 °C | -0.496 °C | -1.15 °C | -0.327 °C | CC(=O)Nc1cccc(-n2c(=O)n(C3CC3)c(=O)c3c(Nc4ccc(I)cc4F)n(C)c(=O)c(C)c32)c1 [Trametinib (GSK1120212)] |  |  |  | 
16 | -0.339 °C | 0.259 °C | -0.358 °C | -0.277 °C | CC(C)(C)c1cc(/C=C(\C#N)C(N)=S)cc(C(C)(C)C)c1O [Tyrphostin AG 879] |  |  |  | 

Row | ΔTm at 10 µM [1, 2] | ΔTm at 10 µM (ZmDRIK1-K217-S514; [3]) | ΔTm at 10 µM (ZmDRIK1-K217-P492; [4]) | ΔTm at 10 µM (ZmDRIK1-R187-P492; [5]) | Structure (SMILES) | ΔTm at 10 µM ([1]; read-out: dTm B) | ΔTm at 10 µM (ZmDRIK1-K217-S514; read-out: dTm B) | ΔTm at 10 µM (ZmDRIK1-K217-P492; read-out: dTm B) | ΔTm at 10 µM (ZmDRIK1-R187-P492; read-out: dTm B)
17 | -0.879 °C | -0.375 °C | -0.341 °C | -0.166 °C | COc1cc2ncc(-c3ccccc3)nc2cc1OC [Tyrphostin AG 1296] |  |  |  | 
18 | -1.26 °C | -0.582 °C | -1.09 °C | -0.611 °C | N#CC(=C(/N)Sc1ccccc1N)/C(C#N)=C(\N)Sc1ccccc1N [U0126-EtOH] |  |  |  | 
19 | -0.715 °C | -0.669 °C | -0.928 °C | -0.26 °C | CS(=O)(=O)c1ccc(-c2cnc(N)c(C(=O)Nc3ccccc3)n2)cc1 [VE-821] |  |  |  | 
20 | -0.91 °C | -0.454 °C | -0.634 °C | -0.196 °C | CNCc1ccc(-c2cc(-c3nc(-c4ccc(S(=O)(=O)C(C)C)cc4)cnc3N)on2)cc1 [VE-822] |  |  |  | 
21 | -0.713 °C | -0.694 °C | -1.16 °C | -0.37 °C | Cc1cc(Nc2cc(N3CCN(C)CC3)nc(Sc3ccc(NC(=O)C4CC4)cc3)n2)n[nH]1 [VX-680 (Tozasertib)] |  |  |  | 
22 | -0.444 °C | -0.374 °C | -0.792 °C | -0.499 °C | NC(=O)c1ccc(N(C(N)=O)c2c(F)cccc2F)nc1-c1ccc(F)cc1F [VX-702] |  |  |  | 
23 | -0.881 °C | -0.414 °C | -1.03 °C | -0.394 °C | O=c1ncn2nc(Sc3ccc(F)cc3F)ccc2c1-c1c(Cl)cccc1Cl [VX-745] |  |  |  | 
24 | -0.824 °C | -0.239 °C | -0.91 °C | -0.154 °C | COc1cc2/c(=N/c3ccc(Br)cc3F)nc[nH]c2cc1OCC1CCN(C)CC1 [Vandetanib (ZD6474)] |  |  |  | 
25 | -0.97 °C | -0.516 °C | -0.993 °C | -0.314 °C | C[C@@H]1COC(Nc2ccc3ncnc(Nc4ccc(OCc5nccs5)c(Cl)c4)c3c2)=N1 [Varlitinib] |  |  |  | 
26 | -0.775 °C | -0.391 °C | -1.11 °C | -0.124 °C | Clc1ccc(Nc2nnc(Cc3ccncc3)c3ccccc23)cc1 [Vatalanib (PTK787) 2HCl] |  |  |  | 
27 | -21.5 °C | -0.89 °C | -0.0662 °C | -7.37 °C | CCCS(=O)(=O)Nc1ccc(F)c(C(=O)c2c[nH]c3ncc(-c4ccc(Cl)cc4)cc23)c1F [Vemurafenib (PLX4032)] |  |  |  | 
28 | -0.792 °C | -0.29 °C | -1.3 °C | -0.282 °C | CC[C@@H]1C(=O)N(C)c2cnc(Nc3ccc(C(=O)N[C@H]4CC[C@H](N5CCN(CC6CC6)CC5)CC4)cc3OC)nc2N1C(C)C [Volasertib (BI 6727)] |  |  |  | 
29 | -0.643 °C | -0.731 °C | -1.19 °C | -0.498 °C | c1cncc(CN2CCC(n3ncc4c(N5CCOCC5)nc(-c5ccc6[nH]ccc6c5)nc43)CC2)c1 [WAY-600] |  |  |  | 
30 |  |  |  |  | COc1ccc(N(C(=O)Oc2c(C)cccc2C)c2ccnc(Nc3ccc(N4CCN(C)CC4)cc3)n2)c(OC)c1 [WH-4-023] | -0.841 °C | -0.646 °C | -0.826 °C | -0.703 °C
31 | 0.428 °C | 2.03 °C | 0.694 °C | 1.76 °C | COc1cc2ncnc(Nc3ccc(O)c(Br)c3)c2cc1OC [WHI-P154] |  |  |  | 
32 | -3.39 °C | -2.48 °C | -4.29 °C | -2 °C | C[C@H](NC(=O)/C(C#N)=C/c1cccc(Br)n1)c1ccccc1 [WP1066] |  |  |  | 

Row | Structure (SMILES) | ΔTm at 10 µM [1, 2] | ΔTm at 10 µM (ZmDRIK1-K217-S514; [3]) | ΔTm at 10 µM (ZmDRIK1-K217-P492; [4]) | ΔTm at 10 µM (ZmDRIK1-R187-P492; [5]) | ΔTm at 10 µM ([1]; read-out: dTm B) | ΔTm at 10 µM (ZmDRIK1-K217-S514; read-out: dTm B) | ΔTm at 10 µM (ZmDRIK1-K217-P492; read-out: dTm B) | ΔTm at 10 µM (ZmDRIK1-R187-P492; read-out: dTm B)
33 | CC(C)(C)c1cc(C=C(C#N)C#N)cc(C(C)(C)C)c1O [Tyrphostin 9] | -0.564 °C | -0.346 °C | -0.298 °C | -0.79 °C |  |  |  | 

From paper PMC7158045 (BMC Plant Biology, 2020)
